Patent US20240082232A1, “COMPOSITIONS AND METHODS FOR TREATMENT OF OVARIAN AND BREAST CANCER” (Board of Regents, The University of Texas System, priority 2021, published 2024)
pIC50: −log10 of the molar value. “Also recorded” adds a separate entry of the source.

How the values were obtained:
[1] = test system: DT40 PARP-1 −/− cells; assay: Dose-response in DT40 PARP-1 -/- cells; details: cells lacking PARP1/2
Procedure: Representative data are from three independent experiments with 4 technical repeats per experiment. […] The IC50 indicated on the curves was calculated using GraphPad Prism 8.
To further test this possibility, DT40 PARP-1 −/−cells that lack PARP enzyme activity (avian cells lack PARP2) were treated with SIK2 inhibitors or olaparib.

[2] = test system: SKOv3 xenografts; assay: SKOv3 subcutaneous xenograft; assay type: in vivo, mice; details: oral, five times per week, 4 weeks
Procedure: (§1) (^nsp>0.05, *p<0.05; ** p<0.01). […] (^nsp>0.05, *p<0.05; ** p<0.01). […] Scale bar, 50 μM.

[3] = test system: SKOv3 and OVCAR8 SIK2 knock-out cells; assay: Olaparib dose-response in SIK2 knock-out cells; details: SIK2 knock-out by CRISPR/Cas9
Procedure: (§2) Representative experiments were from two independent experiments with four technical repeats per experiment. (B) Dose-response curves of olaparib in paired cancer cell lines with or without knockout of SIK2 (top) and with or without stable transfection of SIK2 (bottom). The median inhibitory concertation (IC50) of olaparib was calculated using GraphPad Prism 8. Representative experiments are from two independent experiments with four technical repeats per experiment. Western analysis confirmed either SIK2 knock out (top) or overexpression (bottom).
(§3) To exclude potential off-target effects of SIK2 inhibitors, SIK2 was knocked down by CRISPR/Cas9 and stable ectopic expression of SIK2 was established in SKOv3 and OVCAR8 ovarian cancer cells.
OVCAR8 and SKOv3 SIK2 knock out cell lines were established using CRISPR/Cas9 technology known in the art. Briefly, a plasmid with GFP containing Cas9 and the sgRNA expression were transfected to cancer cells. […] Transfected cells were isolated by FACS for single-cell culture 2-3 days after transfection, and then the cells were expanded and harvested for detection of the protein expression using western analysis.

[4] = test system: MDA-MB-231 xenografts; assay: MDA-MB-231 mammary fat pad xenograft; assay type: in vivo, mice; details: 5 weeks treatment
Procedure: as §1
Forty female nu/nu mice were injected with 0.8×10^6 MDA-MB-231 cells into their fourth mammary fat pads. […] Tumors were measured every week as noted above (SKOv3 xenograft models).

[5] = test system: SKOv3 and OVCAR8 cells with stable ectopic expression of SIK2; assay: Olaparib dose-response in cells with stable ectopic SIK2 expression
Procedure: as §2, §3

[6] = test system: OVCAR8 and MDA-MB-231 xenograft tumors; assay: IHC of xenograft tumors at study termination; assay type: in vivo, mice
Procedure: as §1
Tumors growing as xenografts were collected for histology with H&E and IHC staining. Routine H&E staining detected high-grade ovarian cancer in ovarian cancer xenograft models and breast cancer morphology in the breast cancer xenograft model, respectively. IHC of OVCAR8 and MDA-MB-231 xenograft tumors at study termination recapitulated in vitro studies.
Formalin fixed and paraffin embedded mouse tissue sections were deparaffinized and rehydrated in gradient ethanol solutions. Antigens were retrieved in Rodent Decloaker (BioCare Medical, RD913M) and microwaved twice in an EZ Retriever System V3 (BioGenex) at 95° C. for 5 min. Tissues were blocked in PeroxAbolish (BioCare Medical, PXA969M) for 30 min, Rodent Block M (BioCare Medical, RBM961L) for 30 min, and 5% BSA in PBS for 30 min Tissues were incubated with primary antibody as indicated overnight at 4° C. VisUCyte HRP Polymer IgG (R&D Systems, VC001-025 for mouse, VC003-025 for rabbit) was applied for 30 min at room temperature followed by DAB chromogenesis (BioCare Medical, BDB2004L). Tissues were counter-stained with CAT hematoxylin (Thermo Fisher, CATHE-M) for 20 sec. The slides were then dehydrated through gradient ethanol solutions and two passes of xylene and sealed with Permount (Thermo Fisher, SP15-100).

[7] = test system: SKOv3, OVCAR8, HCC5032, MDA-MB-231 cells; assay: DNA damage: γ-H2AX immunofluorescence and comet assay; assay type: cell-based, human
Procedure: (A) The Heatmap representation unsupervised hierarchical clustering of differentially expressed genes associated with DNA repair. […] (B) Analysis of DNA Repair and apoptosis genes. BRCA2, EXO1, FANCD2, LIG4, XRCC4, BAX, BCL2, CASP7, and TRADD were analyzed using RT-PCR in OVCAR8 ovarian and MDA-MB-231 breast cancer cells. […] (C) Quantification of DNA damage (γ-H2AX). Endogenous γ-H2AX was stained with anti-γ-H2AX antibody in the cells treated with single agent or combined for 8 hrs as indicated. […] Red indicates γ-H2AX and Blue-DAPI indicates nuclear stain. Representative images are presented (right). Bar 20 […]. Red γ-H2AX dots were quantified with OLYMPUS CellSens Dimension software. […] Bar 20 μm. (D) Detection of apoptosis using Annexin V/Propidium iodide (PI) staining.
(A) The heatmap of unsupervised hierarchical clustering of differently expressed genes associated with apoptosis. […] (B) Analysis of DNA repair and apoptosis gene. […] Representative experiments were from two independent experiment and 3 technical repeats per experiments. (C) Quantification of DNA damage using comet assay. […] Slides were then stained with Vista Green DNA dye and viewed using Olympus fluorescence microscope with FITC filter. Olive Tail Moment was measured using CaspLab1.2.3β2 software. […] Representative experiments were from three independent experiments with a minimum of 50 cells.
Cells were trypsinized and resuspended at 2×10^5/mL in cold PBS without Ca^2+ and Mg^2+. Cells were mixed with pre-warmed comet agarose at 1:10 (v/v) ratio. 10 uL of cell agarose mixture was plated onto comet slides pre-coated with 75 uL of agarose and chilled at 4° C. for 15 min to set. Cells were lysed in 25 mL of Lysis buffer at 4° C. for 2 hrs and washed with alkaline solution (pH 10). Comet slides were electrophoresed in cold alkaline solution at 20V for 15 min. […] Experiments were run in triplicate and Olive Tail Moment was measured using CaspLab1.2.β2 software (CaspLab.com). […] 50-200 Cells were measured for each treatment and experiments were repeated twice independently to ensure reproducibility. […]

[8] = test system: ovarian cancer cell lines; assay: cells; details: read-out: IC50, growth of ovarian cancer cell lines
[9] = test system: MEF2D binding sites in SKOv3 ovarian cancer cells; assay type: cell-based, human
Procedure: Genome-wide binding of MEF2D in SKOv3 ovarian cancer cells was then examined using chromatin immunoprecipitation sequencing (Chip-seq). […] To identify a MEF2D consensus recognition sequence in ovarian cancer cells, de novo-motif discovery analysis was performed.
Chip assays were performed using the Magna Chip A Kit (Millipore). […] Nuclei were isolated and sonicated to obtain 200-1000 bp DNA fragments using the QSONICA sonicator for 30 cycles with 10 seconds pulses at 100% amplitude with 2 min of incubation on ice between pulses. […] For ChIP-Sequence, 500 μg of chromatin per sample was immunoprecipitated with 40 μg of MEF2D antibody. Input determined from 1% of the cell lysate was used as a negative control. Purified and enriched DNA was quantified using real time quantitative PCR (RT-qPCR) with the following primers. […] Analysis of qPCR data was calculated using fold enrichment method (The ChIP signals are divided by the IgG antibody signals, 2^-DDCt).
Sequencing was performed by the Sequencing and Microarray Facility (SMF) at MD Anderson Cancer Center. […] Libraries were amplified by 8 cycles of PCR and then size distribution was assessed using the 4200 TapeStation High Sensitivity D1000 ScreenTape (Agilent Technologies) and quantified using the Qubit dsDNA HS Assay Kit (ThermoFisher). […] The raw reads were first preprocessed to remove sequencing adapters and low quality reads. […]

[10] = test system: MEF2D binding to FANCD2, EXO1, XRCC4; assay: ChIP-qPCR of MEF2D binding to promoter/enhancer regions; assay type: cell-based, human; details: for MEF2D binding to EXO1 and XRCC4 promoter/enhancer regions: all cell lines tested; for MEF2D-association with the FANCD2 promoter/enhancer region: all four cell lines assessed
Procedure: (A) Alterations affecting MEF2 family genes in ovarian and breast cancer by TCGA analysis. […] Data and plots were obtained using cBioPortal (21, 58, 59). (B) MEF2D consensus DNA motifs. The MEF2 motif is enriched in MEF2D-binding sites in SKOv3 cells. (C) GO analysis of MEF2D-bound genes. […] (E) Chip and RT-qPCR analysis of FANCD2, EXO1, and XRCC4 genes. […] Chip pull-down samples were analyzed by RT-qPCR.
(A) MEF2D-binding sites in human ovarian cancer cells. (B) Chip analysis of FANCD2, EXO1, and XRCC4 genes. […] Chip pull-down samples were analyzed by RT-qPCR using as indicated.
Chip assays were performed using the Magna Chip A Kit (Millipore). […] Nuclei were isolated and sonicated to obtain 200-1000 bp DNA fragments using the QSONICA sonicator for 30 cycles with 10 seconds pulses at 100% amplitude with 2 min of incubation on ice between pulses. For individual ChIP assay, 100 μg of soluble chromatin per sample was immunoprecipitated with 8 μg of mouse IgG control antibody (Santa Cruz, sc-2025), 8 μg of rabbit control antibody (Millipore, PP64B), 8 μg of MEF2D antibody (Santa Cruz, sc-27115 3×), 8 μg of RNA polymerase II antibody (Abcam, ab817), 6 μg of Histone H3 (acetyl K27) antibody (Abcam, ab45173) or 6 μg of Histone H3 (tri methyl K4) (Abcam, ab8580). For ChIP-Sequence, 500 μg of chromatin per sample was immunoprecipitated with 40 μg of MEF2D antibody. Input determined from 1% of the cell lysate was used as a negative control. Purified and enriched DNA was quantified using real time quantitative PCR (RT-qPCR) with the following primers. FANCD2D Forward, 5′-ACCTGTTATGAGCGTGAAGTC-3′ (SEQ ID NO:1) and Reverse, 5′-GATGCAGGACTGTGCATTAGA-3′ (SEQ ID NO:2); EXD2 Forward, 5′-GGTCTGGCCTAAGGTTTCTTC-3′ (SEQ ID NO:3) and Reverse, 5′-CAG TTC ACG CTG GGT TCT T-3′ (SEQ ID NO:4); and XRCC Forward, 5′-GCAGTCTTCCTAGTCTCAACT-3′ (SEQ ID NO:5) and Reverse, 5′-TTGCCCTTCTAGGAGCTTAATG-3′ (SEQ ID NO:6). RT-qPCR was performed using iTaq Universal SYBR Green Supermix (Bio-Rad, 172-5124) in a CFX Connect RT-qPCR (Bio-Rad). Thermal cycling condition was as follows: 94° C. for 10 min, followed by 40 cycles of 94° C. for 20 sec, and 60° C. for 60 sec. Analysis of qPCR data was calculated using fold enrichment method (The ChIP signals are divided by the IgG antibody signals, 2^-DDCt).

[11] = test system: MDA-MB-231 orthotopic xenografts; assay: MDA-MB-231 orthotopic xenografts (paclitaxel sensitivity study); assay type: in vivo, mice
[12] = Toxicology / pre-clinical studies, hematologic toxicity; assay type: in vivo
[13] = test system: organoid; assay: Organoid growth; assay type: cell-based
Procedure: To evaluate additive or synergistic interactions, a combination Index (CI value) was calculated with CalcuSyn software.

Row | Structure (SMILES) | sensitivity of DT40 PARP-1 −/− cells [1] | tumor growth [2] | IC50 in SIK2 deficient cells compared to control cells [3] | tumor burden / tumor volume [4] | IC50 in cells with stable ectopic expression of SIK2 [5] | nuclear p-HDAC5 staining [6] | levels of γ-H2AX and tailed DNA [7] | pIC50 [8] | MEF2D binding sites [9] | MEF2D binding to EXO1 and XRCC4 promoter/enhancer regions [10] | MEF2D-association with the FANCD2 promoter/enhancer region [10] | survival of mice [11] | xenograft growth [11] | hematologic toxicity [12] | organoid growth [13] | nuclear γ-H2AX staining [6]
1 | O=C(c1cc(Cc2n[nH]c(=O)c3ccccc23)ccc1F)N1CCN(C(=O)C2CC2)CC1 [Olaparib, reference compound] | resisted | significantly inhibited tumor growth | lower IC50 | tumor burden remained unchanged | increased IC50 | not | modestly increased | – | – | – | – | – | – | – | – | –
2 | COc1c(F)cc(F)cc1-c1c[nH]c2ncc(-c3cnn(C4CCNCC4)c3)cc12 [Compound A, 3-(3,5-difluoro-2-methoxyphenyl)-5-(1-(piperidin-4-yl)-1H-pyrazol-4-yl)-1H-pyrrolo[2,3-b]pyridine] | – | – | – | – | – | – | modestly increased | 5.59 to 6.10 | 36 binding sites | significantly decreased | decreased | – | – | – | – | –
3 | COc1c(F)cc(F)cc1-c1c[nH]c2ncc(-c3cnn(C4CCN(S(C)(=O)=O)CC4)c3)cc12 [Compound B, 3-(3,5-difluoro-2-methoxyphenyl)-5-(1-(1-(methylsulfonyl)piperidin-4-yl)-1H-pyrazol-4-yl)-1H-pyrrolo[2,3-b]pyridine] | – | – | – | tumor burden remained unchanged | – | decreased | modestly increased | 5.59 to 6.10 | – | significantly decreased | decreased | prolonged the survival | inhibited xenograft growth | minimal hematologic toxicity; also recorded: little or no hematopoietic toxicity | inhibits organoid growth inducing cell death | increased nuclear γ-H2AX staining
